This is an account of results in US12545643B2, “3,5-diaminobenzoic acid compound, and Pin1 inhibitor and therapeutic agent for inflammatory diseases using same” (Amenis Bioscience, Inc., priority 2020, dated 2026).

Assay [1] has as its target T1, Pin1 (Homo sapiens, UniProt Q13526). The assay is described as follows: Cell-based assay of Pin1 inhibition (AMPK phosphorylation level as index, Western blot). Details: endogenous in cells; host or cells: 293T cells; key: +++: a higher level of AMPK phosphorylation is promoted, as compared with C1; ++: a similar level of AMPK phosphorylation is promoted, as compared with C1; +: a lower level of AMPK phosphorylation is promoted, as compared with C1; −: no or almost no promotion is found in AMPK phosphorylation. Particulars: 293T cells, compound at 50 μM, 10 mM 2-DG, pAMPK level compared with known Pin1 inhibitor C1. Here is the method:
To evaluate the inhibitory activity of each compound synthesized in Example 1 against the function of Pin1, a cell-based assay was performed according to the method previously developed by the inventors (Yusuke Nakatsu et al., Journal of Biological Chemistry, 2015, Vol. 290, No. 40, pp. 24255-24266), in which the phosphorylation level of AMPK (AMP-activated protein kinase), a protein whose phosphorylation is suppressed by Pin1, was examined as an index.
Briefly, 293T cells were plated on a collagen-coated 24-well plate. Forty-eight hours later, each compound synthesized in the preceding example (at 50 μM) was added to the plate, and the plate was left to stand in an incubator for 30 minutes. Subsequently, 10 mM 2-DG was added to the plate, and one hour later, each sample was collected with a buffer containing mercaptoethanol and SDS.
SDS-PAGE and blotting were performed, and blocking was then performed with 3% BSA for 1 hour, according to conventional protocols. Subsequently, a pAMPK antibody (Cell Signaling; diluted 1:2000 in Can Get Signal Solution 1, Toyobo) as a primary antibody, and an HRP-linked anti rabbit IgG (GE Healthcare; diluted 1:4000 in Can Get Signal Solution 2, Toyobo) as a secondary antibody were allowed to react at ambient temperature for 1 hour prior to detection.
The inhibitory activity against the function of Pin1 was evaluated as indicated below by comparing the inhibition levels between each compound and a known Pin1 inhibitor, C1 ((R)-2-(5-(4-methoxyphenyl)-2-methylfuran-3-carboxamido)-3-(naphthalene-6-yl) propanoic acid):
(+++): a higher level of AMPK phosphorylation is promoted, as compared with C1;
(++): a similar level of AMPK phosphorylation is promoted, as compared with C1;
(+): a lower level of AMPK phosphorylation is promoted, as compared with C1;
(−): no or almost no promotion is found in AMPK phosphorylation.
(A western blot detects proteins with antibodies after separation by electrophoresis.)

Another assay deals with SARS-CoV-2. The assay is described as follows: SARS-CoV-2 proliferation suppression study (nucleocapsid Western blot in VeroE6/TMPRSS2 cells). Type of assay: cell-based. Particulars: for inhibition at 20 µM: Severe acute respiratory syndrome coronavirus 2, 20 μM, MOI 10, lysate 8 hours after infection, read-out: Inhibition rate (SARS-CoV-2 nucleocapsid band area).
The test system of assay [2] is non-alcoholic steatohepatitis (NASH) model mice. The assay is described as follows: NASH treatment study in HFD-fed NASH model mice. To be noted: 5 mg/kg/day orally three times a week, 8 weeks. It is filed as in vivo. Here is the method:
Animal experiments were performed using non-alcoholic steatohepatitis (NASH) model mice to test the compounds according to the present invention for the therapeutic effect on NASH. NASH model mice (hereinafter referred to as “NASH mice”) were produced by feeding a high-fat and high-cholesterol diet containing palm oil (HFD) to individual 8-week-old male laboratory mice for 8 weeks. The mice were divided into groups during 8 weeks of the HFD-feeding period, and animal experiments were performed on a group of mice to which a compound according to the present invention (H-686) was administered orally at a dose of 5 mg/kg/day three times a week, and a group of mice to which nothing was administered. In addition, a normal diet was given to individual 8-week-old male laboratory mice for 8 weeks to prepare control mice. FIGS. 1 (A) and 1 (B) show the results of measurements of body weight and liver weight of these mice respectively. FIGS. 2 (A) and 2 (B) show the results of measurements of blood AST (GOT) concentration and blood ALT (GPT) concentration. respectively. Then FIGS. 3 (A) and 3 (B) show the results of measurements of mRNA expression levels of Colla1 (collagen, type I, alpha 1 chain) and Colla2 (collagen, type I, alpha 2 chain), respectively.

The target of assay [3] is T1, Pin1. The assay is described as follows: Cell-free assay of peptidylprolyl isomerase activity (absorbance at 330 nm, substrate Suc-Ala-Glu-Pro-Phe-pNA). It is filed as biochemical. Particulars: compound 10 μM, Pin1 5 nM, substrate peptide 60 μM, 10° C.; read-out: Pin1 inhibition activity Cell-free assay (inhibition ratio). Here is the method: For some compounds synthesized in Example 1, the inhibitory activity against the function of Pin1 was measured by a cell-free assay based on the method by Janowski et al. (AnalyticalBiochemistry, 1997, Vol. 252, Issue 2, pp. 299-307) because there is an assay measuring peptidylprolylisomerase activity without cells (cell-free).
Briefly, an assay buffer (containing 35 mM HEPES, pH 7.8, 50 μM DTT and 0.0025% NP40) was equilibrated to 10° C. in a quartz cell with stirring function. To this solution was added the compound dissolved in DMSO (10 μM) and then UV spectrum of the resulting solution was immediately measured. Then Pin1 (final concentration of 5 nM) was added to the solution. The reaction was initiated by adding a substrate peptide (Suc-Ala-Glu-Pro-Phe-pNA) dissolved in 0.5 M LiCl solution in trifluoroethanol (final concentration of 60 μM). After reaction was initiated, the change of absorbance at 330 nm was measured for 5 minutes. The resultant reaction curve was fitted to a first order decay model to calculate the reaction rate. The catalytic reaction rate was calculated by subtracting the background rate from the reaction rate. The inhibition ratio (%) was calculated from the catalytic reaction rates in the presence and absence of the compound. The higher inhibition ratio means the higher inhibitory activity against Pin1 function.

For another assay, the system named is NASH-induced mice. Particulars: cited from earlier work.

T1 sequence (Q13526 whole entry): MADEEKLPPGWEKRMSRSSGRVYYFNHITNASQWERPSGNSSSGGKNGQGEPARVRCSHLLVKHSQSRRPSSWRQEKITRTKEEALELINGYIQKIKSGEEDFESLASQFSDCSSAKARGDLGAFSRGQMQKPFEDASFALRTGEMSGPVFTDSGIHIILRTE

As to `COC(=O)c1cc(NC(=O)c2cccnc2)cc(NC(=O)n2c3ccccc3c3ccccc32)c1` [Compound H-680], the “Pin1 inhibition activity Cell-based assay” value at Pin1 [1] is “− (Hydrolysis causes conversion to H-682)”. In the assay with SARS-CoV-2, the inhibition at 20 µM was 53%.
For `COC(=O)c1cc(NC(=O)c2ccc3ccccc3n2)cc(NC(=O)n2c3ccccc3c3ccccc32)c1` [Compound H-684] the same measures were “++ (Hydrolysis causes conversion to H-688)” and 66%.
`COC(=O)c1cc(NC(=O)c2cnc3ccccc3n2)cc(NC(=O)n2c3ccccc3c3ccccc32)c1` [Compound H-685]: at Pin1 [1], the “Pin1 inhibition activity Cell-based assay” value is listed as “+”. In the assay on SARS-CoV-2, the inhibition at 20 µM stood at 58%.
For the compound `COC(=O)c1cc(NC(=O)c2ccc3c(c2)OCCO3)cc(NC(=O)n2c3ccccc3c3ccccc32)c1` [Compound H-686], the “Pin1 inhibition activity Cell-based assay” value at Pin1 [1] is “++ (Hydrolysis causes conversion to H-692)”. In assay [2] (FIG. 1 (A)), the “body weight (weight gain)” value was “weight gain in the mice given H-686 was suppressed”. Besides, the “liver weight (increase)” value in assay [2] (FIG. 1 (B)) is on record as “the increase in liver weight was significantly suppressed”. Moreover, the “blood AST (GOT) concentration” value in assay [2] (FIG. 2 (A)) was “the AST value was decreased”. In addition, the “blood ALT (GPT) concentration” value in assay [2] (FIG. 2 (B)) was “the ALT value was decreased”. Further, the “mRNA expression level of Colla1 (collagen, type I, alpha 1 chain)” value in assay [2] (FIG. 3 (A)) is “the expression level of Colla1 was suppressed”. Moreover, the “mRNA expression level of Colla2 (collagen, type I, alpha 2 chain)” value in assay [2] (FIG. 3 (B)) is recorded as “the suppression of the expression level was observed”. Further, in assay [2] (FIG. 4), the “fat accumulation in liver tissue (microscopic observation)” value is “suppressed fat accumulation”.
Take `O=C(O)c1cc(NC(=O)c2ccc3ccccc3n2)cc(NC(=O)n2c3ccccc3c3ccccc32)c1` [Compound H-688]: the “Pin1 inhibition activity Cell-based assay” value at Pin1 [1] was “++”. Besides, in the assay on SARS-CoV-2 (5 μM or 10 μM, MOI 10, 8 hours after infection, FIG. 5), the “suppressing effect against SARS-CoV-2 proliferation” value was “observed to have a suppressing effect against SARS-CoV-2 proliferation”. Also, in the assay on SARS-CoV-2, the inhibition at 20 µM was determined as 98%.
Turning to `O=C(COc1ccc2ccccc2c1)Nc1cc(NC(=O)n2c3ccccc3c3ccccc32)cc(C(=O)O)c1` [Compound H-761], at Pin1 [3], the inhibition at 10 µM amounted to 70%. For the same compound, at Pin1 [1], the “Pin1 inhibition activity Cell-based assay” value was “−”.
Take `COC(=O)c1cc(NC(=O)COc2ccccn2)cc(NC(=O)n2c3ccccc3c3ccccc32)c1` [Compound H-762]: the “Pin1 inhibition activity Cell-based assay” value on Pin1 [1] is on record as “− (Hydrolysis causes conversion to H-763)”. Besides, the inhibition at 20 µM in the assay on SARS-CoV-2 is 83%.
Consider `O=C(COc1ccccn1)Nc1cc(NC(=O)n2c3ccccc3c3ccccc32)cc(C(=O)O)c1` [Compound H-763], for which the inhibition at 10 µM at Pin1 [3] is 24.6%. Further, on Pin1 [1], the “Pin1 inhibition activity Cell-based assay” value is on record as “−”. Besides, the inhibition at 20 µM in the assay on SARS-CoV-2 is 97%.
`O=C(COc1ccc2ccccc2n1)Nc1cc(NC(=O)n2c3ccccc3c3ccccc32)cc(C(=O)O)c1` [Compound H-765]: the inhibition at 10 µM on Pin1 [3] is 42.8%. Besides, at Pin1 [1], the “Pin1 inhibition activity Cell-based assay” value was “−”.
Regarding `O=C(CNC(=O)c1ccccc1)Nc1cc(NC(=O)n2c3ccccc3c3ccccc32)cc(C(=O)O)c1` [Compound H-767], the inhibition at 10 µM at Pin1 [3] came to 74.8%. The “Pin1 inhibition activity Cell-based assay” value at Pin1 [1] was “−”.
With `O=C(CNC(=O)OCc1ccccc1)Nc1cc(NC(=O)n2c3ccccc3c3ccccc32)cc(C(=O)O)c1` [Compound H-769], the inhibition at 10 µM on Pin1 [3] was found to be 15.9%. Moreover, the “Pin1 inhibition activity Cell-based assay” value at Pin1 [1] is given as “−”.
For the compound `O=C(CN(c1ccccc1)c1ccccc1)Nc1cc(NC(=O)c2ccc3ccccc3c2)cc(C(=O)O)c1` [Compound H-819], on Pin1 [3], the inhibition at 10 µM amounted to 62%. The inhibition at 20 µM in the assay with SARS-CoV-2 came out at 95%.
For `O=C(CN(c1ccccc1)c1ccccc1)Nc1cc(NC(=O)c2ccc3ccccc3n2)cc(C(=O)O)c1` [Compound H-821], the inhibition at 10 µM on Pin1 [3] is 94.4%. For the same compound, the inhibition at 20 µM with SARS-CoV-2 came to 95%.
`O=C1C=CC(=O)c2c(O)cccc21` [Juglone]: in the assay with NASH-induced mice, the “development of NASH” value is on record as “ameliorates the development of NASH”.
